# From patent US20230310428A1, “EGFR INHIBITOR AND PREPARATION METHOD AND USE THEREOF” (HONGYUN BIOTECH CO., LTD., priority 2020, published 2023)
# Where two headings read alike, the source gives them in different places.
# What was measured:
# Test in all cases: Growth inhibitory activity of compounds on BaF3 cell lines stably transfected with kinase (MTS, 48 h)
# Assay type in all cases: cell-based
# [1] = target: T1, various mutants of kinase EGFR (BaF3 cell lines stably transfected with kinase) (Homo sapiens, UniProt P00533, L858R/T790M)
# T1 construct: expressed in transfected cells; host or cells: BaF3
# T1 sequence (P00533 25-1210 T790M/L858R): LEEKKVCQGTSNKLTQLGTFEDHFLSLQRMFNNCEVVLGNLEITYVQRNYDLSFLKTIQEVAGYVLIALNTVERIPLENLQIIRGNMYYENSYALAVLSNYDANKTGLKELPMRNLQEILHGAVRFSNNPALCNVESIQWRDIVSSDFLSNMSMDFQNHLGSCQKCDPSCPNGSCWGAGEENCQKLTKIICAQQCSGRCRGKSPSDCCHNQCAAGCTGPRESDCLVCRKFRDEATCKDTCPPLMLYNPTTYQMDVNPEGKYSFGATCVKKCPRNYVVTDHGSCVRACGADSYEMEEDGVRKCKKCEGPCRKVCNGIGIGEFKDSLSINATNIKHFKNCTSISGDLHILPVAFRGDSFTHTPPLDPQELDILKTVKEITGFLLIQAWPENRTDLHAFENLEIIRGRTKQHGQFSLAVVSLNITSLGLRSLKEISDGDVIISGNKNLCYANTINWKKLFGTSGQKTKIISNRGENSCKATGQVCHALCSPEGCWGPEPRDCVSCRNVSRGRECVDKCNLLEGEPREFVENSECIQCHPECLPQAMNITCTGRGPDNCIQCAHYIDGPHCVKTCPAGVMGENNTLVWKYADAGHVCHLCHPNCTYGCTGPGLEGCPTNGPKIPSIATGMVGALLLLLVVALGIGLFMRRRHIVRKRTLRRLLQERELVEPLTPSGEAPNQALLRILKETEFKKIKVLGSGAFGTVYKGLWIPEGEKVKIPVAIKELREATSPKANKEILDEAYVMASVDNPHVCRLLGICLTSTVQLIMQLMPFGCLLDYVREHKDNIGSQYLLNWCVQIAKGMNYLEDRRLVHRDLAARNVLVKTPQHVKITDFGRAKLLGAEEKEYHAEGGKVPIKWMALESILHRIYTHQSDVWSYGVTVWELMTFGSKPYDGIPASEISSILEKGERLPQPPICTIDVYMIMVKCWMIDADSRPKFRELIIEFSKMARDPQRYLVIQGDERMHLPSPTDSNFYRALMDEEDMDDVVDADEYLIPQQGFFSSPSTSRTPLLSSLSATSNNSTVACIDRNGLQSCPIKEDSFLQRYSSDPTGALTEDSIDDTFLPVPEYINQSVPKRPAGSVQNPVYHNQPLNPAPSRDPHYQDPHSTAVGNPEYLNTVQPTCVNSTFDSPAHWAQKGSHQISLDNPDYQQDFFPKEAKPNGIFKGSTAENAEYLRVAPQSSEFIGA
# Method: (§1) The activity of compounds against various mutants of kinase EGFR was evaluated by their effect of inhibiting growth of BaF3 cell lines stably transfected with kinase. The specific test method was given as follows:
# (§2) 1) Culture medium: DMEM (Dulbecco’s modified eagle medium) or RPMI 1640 (containing 10% fetal bovine serum, 100 µg/mL ampicillin, 100 µg/mL streptomycin).
# (§3) 2) Reagent: MTS reaction solution (containing 2 mg/mL of MTS [3-(4,5-dimethylthiazol-2-yl)-5-(3-carboxymethoxyphenyl)-2-(4-sulfophenyl)-2H-tetrazoliu m, inner Salt]; 100 µg/mL of PES ([…])).
# (§4) 3) Compound test: cells were incubated into a 96-well culture plate, the volume of cytosol was 90 µL, and then 10 µL of the compound at each gradient concentration was added. That is, the highest concentration was 10 µM, which was diluted stepwise by ⅓, and 8 concentration points were set in total; 0.1% DMSO (dimethyl sulfoxide) was contained in the system. The cell plate with uniformly mixed compound was cultured in a cell culture incubator (37° C.; 5% CO2) for 48 h, then 20 µL of MTS reaction solution was added, uniformly mixed and incubated in the cell culture incubator (37° C.; 5% CO2) for 1-4 h. OD values at 490 nm were measured by a microplate reader (VARIOSKAN FLASH, Thermo). Two parallels were set in each group of experiments, with 0.1% (a final concentration) DMSO as a negative control, and a culture medium without cells and compounds as a blank control. The cell growth inhibition rate was calculated by the following formula: […]
# (§5) 4) IC50 calculation: The semi-inhibitory concentration of the compounds acting on cells was calculated using GradPad Prism 5 software according to the measured cell growth inhibition rate.
# [2] = target: T2, various mutants of kinase EGFR (BaF3 cell lines stably transfected with kinase) (Homo sapiens, UniProt P00533, T790M, form not given)
# T2 construct: other: BaF3 cells stably transfected with EGFR Δ19Del/T790M; MTS, 48 h; other: BaF3 cell line stably transfected with EGFR Δ19Del/T790M; MTS, 48
# T2 sequence (P00533 with tags, fused parts or gaps DEL746-750/T790M, form open): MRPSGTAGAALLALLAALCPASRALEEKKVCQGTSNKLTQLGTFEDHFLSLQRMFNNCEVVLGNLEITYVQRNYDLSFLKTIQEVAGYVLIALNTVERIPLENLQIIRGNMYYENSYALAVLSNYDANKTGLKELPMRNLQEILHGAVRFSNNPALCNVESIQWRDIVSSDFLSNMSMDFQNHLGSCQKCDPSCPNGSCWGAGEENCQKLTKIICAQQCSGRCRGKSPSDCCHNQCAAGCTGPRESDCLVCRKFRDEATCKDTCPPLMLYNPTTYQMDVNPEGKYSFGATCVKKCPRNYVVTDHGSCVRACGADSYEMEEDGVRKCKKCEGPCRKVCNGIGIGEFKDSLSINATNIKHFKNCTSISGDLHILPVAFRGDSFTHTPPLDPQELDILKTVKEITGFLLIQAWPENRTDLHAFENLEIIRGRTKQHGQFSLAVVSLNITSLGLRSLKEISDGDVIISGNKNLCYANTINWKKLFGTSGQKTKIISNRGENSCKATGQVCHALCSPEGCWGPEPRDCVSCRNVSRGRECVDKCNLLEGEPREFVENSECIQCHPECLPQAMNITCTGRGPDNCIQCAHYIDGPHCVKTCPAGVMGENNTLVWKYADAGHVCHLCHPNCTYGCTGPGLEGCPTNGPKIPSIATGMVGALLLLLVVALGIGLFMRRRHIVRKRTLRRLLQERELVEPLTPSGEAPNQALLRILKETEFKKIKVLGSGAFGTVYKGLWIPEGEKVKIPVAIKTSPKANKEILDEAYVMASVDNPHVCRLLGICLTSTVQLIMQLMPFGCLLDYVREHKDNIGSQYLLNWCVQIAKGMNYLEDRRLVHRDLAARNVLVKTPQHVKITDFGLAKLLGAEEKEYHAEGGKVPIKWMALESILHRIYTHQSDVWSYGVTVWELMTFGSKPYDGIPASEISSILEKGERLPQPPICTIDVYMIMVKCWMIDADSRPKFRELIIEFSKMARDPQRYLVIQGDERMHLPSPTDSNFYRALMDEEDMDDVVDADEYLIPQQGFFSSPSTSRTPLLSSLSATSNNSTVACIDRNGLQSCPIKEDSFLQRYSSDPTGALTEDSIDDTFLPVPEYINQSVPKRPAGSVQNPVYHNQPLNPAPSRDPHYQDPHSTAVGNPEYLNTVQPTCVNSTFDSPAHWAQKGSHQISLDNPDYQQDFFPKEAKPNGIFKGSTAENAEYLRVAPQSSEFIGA
# Method: as §1, §2, §3, §4, §5
# [3] = target: T3, various mutants of kinase EGFR (BaF3 cell lines stably transfected with kinase) (Homo sapiens, UniProt P00533, C797S/L858R/T790M)
# T3 construct: expressed in transfected cells; host or cells: BaF3
# Method: as §1, §2, §3, §4, §5
# [4] = target: T4, various mutants of kinase EGFR (BaF3 cell lines stably transfected with kinase) (Homo sapiens, UniProt P00533)
# T4 construct: other: BaF3 cells stably transfected with EGFR Δ19Del; MTS, 48 h; other: BaF3 cell line stably transfected with EGFR Δ19Del
# Method: as §1, §2, §3, §4, §5
# [5] = target: T5, various mutants of kinase EGFR (BaF3 cell lines stably transfected with kinase) (Homo sapiens, UniProt P00533, T790M/C797S, form not given)
# T5 construct: other: BaF3 cells stably transfected with EGFR Δ19Del/T790M/C797S; MTS, 48; other: BaF3 cell line stably transfected with EGFR Δ19Del/T790M/C7
# T5 sequence (P00533 with tags, fused parts or gaps DEL746-750/T790M/C797S, form open): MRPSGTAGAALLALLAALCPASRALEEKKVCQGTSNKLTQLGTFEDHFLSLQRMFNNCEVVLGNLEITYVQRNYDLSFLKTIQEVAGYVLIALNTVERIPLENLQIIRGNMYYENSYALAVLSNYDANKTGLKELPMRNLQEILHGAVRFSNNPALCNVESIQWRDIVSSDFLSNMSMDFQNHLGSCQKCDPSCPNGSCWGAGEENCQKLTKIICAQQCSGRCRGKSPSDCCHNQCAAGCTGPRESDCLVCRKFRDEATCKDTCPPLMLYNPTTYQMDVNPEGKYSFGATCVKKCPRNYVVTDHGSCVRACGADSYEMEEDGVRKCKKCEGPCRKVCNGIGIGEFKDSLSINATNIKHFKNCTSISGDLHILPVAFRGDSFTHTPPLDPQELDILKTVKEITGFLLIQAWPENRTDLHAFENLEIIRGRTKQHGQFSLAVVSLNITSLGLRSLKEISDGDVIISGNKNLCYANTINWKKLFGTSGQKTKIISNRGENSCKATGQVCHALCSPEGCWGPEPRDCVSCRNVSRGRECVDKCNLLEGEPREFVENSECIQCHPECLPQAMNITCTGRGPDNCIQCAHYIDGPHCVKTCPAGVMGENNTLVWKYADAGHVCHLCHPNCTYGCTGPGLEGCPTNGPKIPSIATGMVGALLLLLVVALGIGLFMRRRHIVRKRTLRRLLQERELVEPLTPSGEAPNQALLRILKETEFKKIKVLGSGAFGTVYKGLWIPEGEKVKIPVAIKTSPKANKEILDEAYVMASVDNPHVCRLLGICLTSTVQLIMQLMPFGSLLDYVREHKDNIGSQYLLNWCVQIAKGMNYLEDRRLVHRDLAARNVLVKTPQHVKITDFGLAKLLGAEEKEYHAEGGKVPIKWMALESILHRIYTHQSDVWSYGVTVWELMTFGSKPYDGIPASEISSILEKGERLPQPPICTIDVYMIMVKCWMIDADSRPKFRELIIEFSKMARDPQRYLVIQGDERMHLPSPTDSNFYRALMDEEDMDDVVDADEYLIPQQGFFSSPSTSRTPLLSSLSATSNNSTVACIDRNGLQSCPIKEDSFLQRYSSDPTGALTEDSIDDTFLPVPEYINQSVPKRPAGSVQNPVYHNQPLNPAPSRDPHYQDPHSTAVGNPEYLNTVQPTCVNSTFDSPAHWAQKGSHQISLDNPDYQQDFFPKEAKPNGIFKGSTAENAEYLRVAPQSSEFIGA
# Method: as §1, §2, §3, §4, §5
# [6] = target: T6, various mutants of kinase EGFR (BaF3 cell lines stably transfected with kinase) (Homo sapiens, UniProt P00533, L858R)
# T6 construct: expressed in transfected cells; host or cells: BaF3
# T6 sequence (P00533 25-1210 L858R): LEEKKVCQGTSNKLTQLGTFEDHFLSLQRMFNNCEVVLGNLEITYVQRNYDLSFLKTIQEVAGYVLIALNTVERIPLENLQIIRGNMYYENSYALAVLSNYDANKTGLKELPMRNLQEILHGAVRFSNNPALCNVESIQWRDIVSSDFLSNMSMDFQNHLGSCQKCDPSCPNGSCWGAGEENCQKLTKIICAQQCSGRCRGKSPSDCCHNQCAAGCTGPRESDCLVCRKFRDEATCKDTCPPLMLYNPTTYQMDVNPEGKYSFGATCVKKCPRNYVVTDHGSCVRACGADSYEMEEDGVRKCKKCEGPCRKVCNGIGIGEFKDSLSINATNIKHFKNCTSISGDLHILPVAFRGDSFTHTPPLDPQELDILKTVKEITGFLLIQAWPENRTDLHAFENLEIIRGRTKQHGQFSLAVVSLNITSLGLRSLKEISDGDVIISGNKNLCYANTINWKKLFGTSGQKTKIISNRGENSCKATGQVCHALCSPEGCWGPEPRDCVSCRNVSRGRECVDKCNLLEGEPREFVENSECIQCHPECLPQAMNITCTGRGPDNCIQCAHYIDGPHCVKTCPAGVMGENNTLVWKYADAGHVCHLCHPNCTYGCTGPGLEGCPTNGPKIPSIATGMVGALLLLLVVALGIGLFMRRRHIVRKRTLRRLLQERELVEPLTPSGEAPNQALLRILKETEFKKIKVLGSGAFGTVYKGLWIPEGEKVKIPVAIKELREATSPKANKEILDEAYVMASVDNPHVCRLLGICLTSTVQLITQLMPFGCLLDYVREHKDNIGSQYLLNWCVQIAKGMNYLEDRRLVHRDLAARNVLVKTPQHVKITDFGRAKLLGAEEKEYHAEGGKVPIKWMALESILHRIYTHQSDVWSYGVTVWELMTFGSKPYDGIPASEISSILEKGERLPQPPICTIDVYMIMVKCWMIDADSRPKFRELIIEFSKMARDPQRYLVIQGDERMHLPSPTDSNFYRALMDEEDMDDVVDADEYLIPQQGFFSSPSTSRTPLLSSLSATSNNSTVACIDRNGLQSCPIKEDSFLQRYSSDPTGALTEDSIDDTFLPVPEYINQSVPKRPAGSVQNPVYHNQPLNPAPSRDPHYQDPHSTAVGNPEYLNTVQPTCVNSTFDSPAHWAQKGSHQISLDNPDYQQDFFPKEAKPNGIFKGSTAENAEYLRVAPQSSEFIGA
# Method: as §1, §2, §3, §4, §5
# [7] = BaF3 cells stably transfected with EGFR L858R/T790M, read-out: IC50, growth inhibition, L858R/T790M
# [8] = BaF3 cells stably transfected with EGFR Δ19Del/T790M, read-out: IC50, growth inhibition, Δ19Del/T790M
# [9] = BaF3 cells stably transfected with EGFR L858R/T790M/C797S, read-out: IC50, growth inhibition, L858R/T790M/C797S
# [10] = BaF3 cells stably transfected with EGFR Δ19Del, read-out: IC50, growth inhibition, Δ19Del
# [11] = BaF3 cells stably transfected with EGFR Δ19Del/T790M/C797S, read-out: IC50, growth inhibition, Δ19Del/T790M/C797S
# [12] = BaF3 cells stably transfected with EGFR L858R, read-out: IC50, growth inhibition, L858R
# [13] = BaF3 cell line stably transfected with EGFR L858R/T790M, read-out: L858R/ T790M growth inhibitory activity IC50
# [14] = BaF3 cell line stably transfected with EGFR Δ19Del/T790M, read-out: Δ19Del/ T790M growth inhibitory activity IC50
# [15] = BaF3 cell line stably transfected with EGFR L858R/T790M/C797S, read-out: L858R/T790M/ C797S growth inhibitory activity IC50
# [16] = BaF3 cell line stably transfected with EGFR Δ19Del, read-out: Δ19Del growth inhibitory activity IC50
# [17] = BaF3 cell line stably transfected with EGFR Δ19Del/T790M/C797S, read-out: Δ19Del/T790M/ C797S growth inhibitory activity IC50
# [18] = BaF3 cell line stably transfected with EGFR L858R, read-out: L858R growth inhibitory activity IC50
Compound,"IC50 [1, 7] [nM]","IC50 [2, 8] [nM]","IC50 [3, 9] [nM]","IC50 [4, 10] [nM]","IC50 [5, 11] [nM]","IC50 [6, 12] [nM]","IC50 [1, 13] [nM]","IC50 [2, 14] [nM]","IC50 [3, 15] [nM]","IC50 [4, 16] [nM]","IC50 [5, 17] [nM]","IC50 [6, 18] [nM]"
CCc1cc(Nc2ncc(Cl)c(Nc3ccc4nccnc4c3N(C)S(=O)(=O)CC)n2)c(OC)cc1N1CCC(N(C)C)CC1 [Compound I-117],≤ 50,≤ 50,≤ 50,≤ 50,≤ 50,≤ 50,,,,,,
CCn1cc(Nc2ncc(Br)c(Nc3ccc4nccnc4c3N(C)S(C)(=O)=O)n2)c(C)n1 [Compound I-387],,,,,,,50 to 500,500 to 2500,50 to 500,500 to 2500,50 to 500,500 to 2500
COc1ccc(N2CCC(O)CC2)cc1Nc1ncc(Cl)c(Nc2ccc3nccnc3c2N(C)S(=O)(=O)C(F)(F)F)n1 [Compound I-370],,,,,,,50 to 500,500 to 2500,≤ 50,500 to 2500,≤ 50,50 to 500
COc1cc(N2CCN(C)CC2)c(C)cc1Nc1nc(Nc2ccc3nccnc3c2N(C)S(C)(=O)=O)c2sccc2n1 [II-1-12],,,,,,,50 to 500,500 to 2500,50 to 500,500 to 2500,50 to 500,500 to 2500
COc1ccc(N2CCC(C#N)CC2)cc1Nc1ncc(Br)c(Nc2ccc3nccnc3c2N(C)S(C)(=O)=O)n1 [Compound I-351],,,,,,,≤ 50,50 to 500,50 to 500,50 to 500,50 to 500,50 to 500
CCc1cc(Nc2ncc(Br)c(Nc3ccc4nccnc4c3NS(C)(=O)=O)n2)c(OC)cc1N1CCN(C)CC1 [Compound I-411],,,,,,,≤ 50,≤ 50,≤ 50,≤ 50,≤ 50,≤ 50
CN(c1c(Nc2nc(Nc3ccc(S(=O)(=O)NC4CC4)cc3)ncc2Br)ccc2nccnc12)S(C)(=O)=O [Compound I-50],≤ 50,50 to 500,50 to 500,50 to 500,500 to 2500,50 to 500,,,,,,
CCc1cc(Nc2ncc(Br)c(Nc3ccc4nccnc4c3N(C)S(=O)(=O)C3CC3)n2)c(OC)cc1N1CCC(N(C)C)C1 (stereo not drawn) [Compound I-108],≤ 50,≤ 50,≤ 50,50 to 500,≤ 50,50 to 500,,,,,,
CCc1cc(Nc2ncc(Cl)c(Nc3ccc4nccnc4c3N(CC)S(C)(=O)=O)n2)c(OC)cc1N1CCN(C)CC1 [Compound I-232],≤ 50,≤ 50,≤ 50,≤ 50,≤ 50,≤ 50,,,,,,
COc1ccc(N2CCC(O)CC2)cc1Nc1ncc(C2CC2)c(Nc2ccc3nccnc3c2N(C)S(C)(=O)=O)n1 [Compound I-365],,,,,,,≤ 50,50 to 500,≤ 50,50 to 500,≤ 50,≤ 50

# Continued, values first:
"IC50 [1, 7] [nM]","IC50 [2, 8] [nM]","IC50 [3, 9] [nM]","IC50 [4, 10] [nM]","IC50 [5, 11] [nM]","IC50 [6, 12] [nM]","IC50 [1, 13] [nM]","IC50 [2, 14] [nM]","IC50 [3, 15] [nM]","IC50 [4, 16] [nM]","IC50 [5, 17] [nM]","IC50 [6, 18] [nM]",Compound
≤ 50,50 to 500,≤ 50,50 to 500,≤ 50,50 to 500,,,,,,,CCN(c1c(Nc2nc(Nc3ccc(N4CCC(N5CCN(C)CC5)CC4)cc3OC)ncc2Cl)ccc2nccnc12)S(C)(=O)=O [Compound I-224]
,,,,,,≤ 50,≤ 50,≤ 50,50 to 500,≤ 50,≤ 50,CN1CCN(C2CCN(c3c(F)cc(Nc4ncc(Br)c(Nc5ccc6nccnc6c5N(C)S(C)(=O)=O)n4)cc3F)CC2)CC1 [Compound I-354]
,,,,,,50 to 500,50 to 500,50 to 500,50 to 500,50 to 500,50 to 500,COc1cc(N2CCC(N3CCN(C)CC3)CC2)c(C2CC2)cc1Nc1nccc(Nc2ccc3nccnc3c2N(C)S(C)(=O)=O)n1 [Compound I-343]
50 to 500,50 to 500,50 to 500,50 to 500,≤ 50,50 to 500,,,,,,,CCc1cc(Nc2ncc(Cl)c(Nc3ccc4nccnc4c3N(C)S(=O)(=O)CC)n2)c(OC(F)(F)F)cc1N1CCC(N2CCN(C)CC2)CC1 [Compound I-116]
≤ 50,≤ 50,≤ 50,≤ 50,≤ 50,≤ 50,,,,,,,CCc1cc(Nc2ncc(Br)c(Nc3ccc4nccnc4c3N(C)S(C)(=O)=O)n2)c(OC)cc1N1CCC(N(C)C)CC1 [Compound I-16]
,,,,,,≤ 50,≤ 50,50 to 500,≤ 50,50 to 500,≤ 50,CCc1cc(Nc2ncc(C(C)C)c(Nc3ccc4nccnc4c3N(C)S(C)(=O)=O)n2)c(OC)cc1N1CCC(N2CCN(C)CC2)CC1 [Compound I-327]
,,,,,,≤ 50,50 to 500,≤ 50,50 to 500,50 to 500,50 to 500,COc1ccc(N2CCC(N3CCCC3)CC2)cc1Nc1ncc(Br)c(Nc2ccc3nccnc3c2N(C)S(C)(=O)=O)n1 [Compound I-382]
,,,,,,50 to 500,50 to 500,50 to 500,50 to 500,≤ 50,50 to 500,COc1cc(N2CCC(N3CCN(C)CC3)CC2)c(C)cc1Nc1nc(Nc2ccc3nccnc3c2N(C)S(C)(=O)=O)c2sccc2n1 [II-1-2]
≤ 50,≤ 50,≤ 50,≤ 50,≤ 50,≤ 50,,,,,,,COc1cc(N2CCC(N3CCN(C)CC3)CC2)c(C)cc1Nc1ncc(C(F)(F)F)c(Nc2ccc3nccnc3c2N(C)S(C)(=O)=O)n1 [Compound I-34]
50 to 500,500 to 2500,500 to 2500,50 to 500,50 to 500,50 to 500,,,,,,,CCc1cc(Nc2ncc(F)c(Nc3ccc4nccnc4c3N(C)S(=O)(=O)C3CC3)n2)c(OC(F)(F)F)cc1N1CCC(N2CCN(C)CC2)CC1 [Compound I-250]
,,,,,,≤ 50,≤ 50,≤ 50,50 to 500,≤ 50,≤ 50,COc1cc(N2CCC(N3CCN(C)CC3)CC2)c(CC2CC2)cc1Nc1ncc(Br)c(Nc2ccc3nccnc3c2NS(C)(=O)=O)n1 [Compound I-408]
≤ 50,≤ 50,≤ 50,≤ 50,≤ 50,≤ 50,,,,,,,COc1cc(N2CCC(N3CCN(C)CC3)CC2)c(C)cc1Nc1ncc(Br)c(Nc2ccc3nccnc3c2N(C2CC2)S(C)(=O)=O)n1 [Compound I-154]
≤ 50,≤ 50,≤ 50,≤ 50,≤ 50,≤ 50,,,,,,,CCc1cc(Nc2ncc(Br)c(Nc3ccc4nccnc4c3N(C)S(C)(=O)=O)n2)c(OC)cc1N1CCC(N2CCN(C)CC2)CC1 [Compound I-3]
